From patent publication US20260174778A1, “SULFONAMIDE COMPOUND, AND PREPARATION METHOD THEREFOR AND USE THEREOF” (SHANGHAI HENLIUS BIOTECH, INC., priority 2023, published 2026)

System: human breast cancer ZR-75-1 cell xenograft tumor
Assay: Anti-tumor effect in ER+KAT6high breast cancer cell xenograft tumor model (Test Example 5)
Type: in vivo, Balb/c nude mice
Settings: for T/C / TGI / mean tumor volume: day 35; for body weight changes compared to the PF-8144 group: all doses (0.01, 0.1, 2 mg/kg)
Protocol: Test Example 5: Anti-Tumor Effects of Test Compounds in ER^+KAT6^high Breast Cancer Cell-Xenograft Tumor Model
Assay method: ZR-75-1 cells were subcutaneously inoculated into the right back of each mouse to evaluate the efficacy of the compounds in the subcutaneous xenograft tumor model of ZR-75-1 cells.
• 1. Cell culture: ZR-75-1 cells were cultured as a monolayer in vitro under the following culture conditions: an RPMI 1640 medium supplemented with 10% fetal bovine serum and 1% Anti-anti (Antibiotic-Antimycotic), incubated in an incubator at 37° C. with 5% CO2. The cells were digested with trypsin-EDTA twice a week for passaging as per conventional practice. When the cell saturation reached 80%-90% and the quantity met the requirement, the cells were harvested, counted, and inoculated. • 2. Animals: Balb/c nude mice, female, 6-8 weeks old, weighing 18-22 g. A total of 128 mice were required (80 mice were enrolled). They were provided by Vital River. • 3. Tumor inoculation: Two days before tumor inoculation, 17-beta estradiol tablets (0.18 mg) were subcutaneously administered, and 10 million ZR-75-1 tumor cells+matrigel (total […]) were subcutaneously inoculated into the right back of each mouse. When the mean tumor volume reached about 137 mm^3, the mice were grouped for administration. • 4. Experimental administration: The compounds were dissolved in 5% DMSO+5% Tween 80+90% Saline, and administered intragastrically (PO) daily for five weeks. • 5. Experimental indicators: The experimental indicators were to investigate whether the tumor growth was inhibited or delayed or the tumor was cured. Tumor diameters were measured twice weekly using a vernier caliper. The tumor volume was calculated using the following formula: V=0.5a×b^2, where a and b represent the long diameter and short diameter of the tumor, respectively. • 6. The anti-tumor efficacy of the compounds was evaluated by TGI (%) or relative tumor proliferation rate T/C (%). TGI (%) refers to the tumor growth inhibition rate. Calculation of TGI (%):TGI (%)=[(1−(mean tumor volume at the end of administration in a treatment group—mean tumor volume at the start of administration in the treatment group))/(mean tumor volume at the end of treatment in the solvent control group—mean tumor volume at the start of treatment in the solvent control group)]×100%. The calculation formula for the relative tumor proliferation rate T/C (%) was as follows: T/C %=TRTV/CRTV×100% (TRTV:RTV of the treatment group; CRTV:RTV of the negative control group). The relative tumor volume (RTV) was calculated based on the tumor measurement results using the following formula: RTV=Vt/V0, where V0 represents the mean tumor volume measured at the time of grouping for administration (i.e., PG-D0), and Vt represents the mean tumor volume at a certain measurement. TRTV and CRTV were derived from data measured on the same day.
The mean and standard error of mean (SEM) of tumor volume at each time point for each group were included. The differences in tumor volume and tumor weight among the groups were statistically analyzed. For comparisons among three or more groups, one-way ANOVA was used for analysis. […] The analysis was performed using SPSS 17.0, and p<0.05 was considered to indicate a significant difference.
For comparisons between different doses of the same drug or different drugs at the same dose, two-way ANOVA was used for analysis, and the Bonferroni method was applied for testing. The analysis was performed using GraphPad Prism 9.0, and p<0.05 was considered to indicate a significant difference. On day 35 after the start of administration, the data between different doses of the same drug or different drugs at the same dose were analyzed using one-way ANOVA. […] The analysis was performed using SPSS 17.0, and p<0.05 was considered to indicate a significant difference.

Compound	T/C (0.01 mg/kg PO QD)	TGI (0.01 mg/kg PO QD)	mean tumor volume (0.01 mg/kg PO QD)	efficacy compared to PF-8144 (0.1 mg/kg PO QD)	T/C (0.1 mg/kg PO QD)	TGI (0.1 mg/kg PO QD)	mean tumor volume (0.1 mg/kg PO QD)	T/C (2 mg/kg PO QD)	TGI (2 mg/kg PO QD)	mean tumor volume (2 mg/kg PO QD)	body weight changes compared to the PF-8144 group
COc1ccc2c(c1S(=O)(=O)Nc1noc3cc(Cn4cccn4)c(F)c(OC)c13)OCCO2 [Compound 28, N-(6-((1H-Pyrazol-1-yl)methyl)-5-fluoro-4-methoxybenzo[d]isoxazol-3-yl)-6-methoxy-2,3-dihydrobenzo[b][1,4]dioxine-5-sulfonamide]	76.14%	30.94%	1,017 mm^3	significantly superior in efficacy to PF-8144	11.36%	98.07%	162 mm^3	0.84%	109.69%	12 mm^3	no statistically significant difference
COc1ccc2c(c1S(=O)(=O)Nc1noc3cc(Cn4cccn4)c(F)c(OC)c13)OCC=C2 [Compound 101, N-(6-((1H-Pyrazol-1-yl)methyl)-5-fluoro-4-methoxybenzo[d]isoxazol-3-yl)-7-methoxy-2H-chromene-8-sulfonamide]	19.06%	89.81%	264 mm^3	significantly superior in efficacy to PF-8144	1.79%	108.64%	25 mm^3	0.96%	109.56%	14 mm^3	no statistically significant difference
COc1ccccc1S(=O)(=O)Nc1noc2cc(Cn3cccn3)cc(OC)c12 [PF-8144, reference compound]	72.71%	30.19%	1,035 mm^3	–	40.77%	65.53%	580 mm^3	2.51%	107.85%	36 mm^3	–
